pIC50: −log10 of the molar value.
How the values were obtained:
PDE4B2 = PDE4B2 (Homo sapiens, UniProt Q07343); experiment: IMAP fluorescence polarisation PDE4 subtype assay; format: biochemical
Protocol: Inhibition of PDE4 subtypes by the compound of formula (I) was tested using IMAP technology, which is based on the high affinity binding of phosphate by immobilized metal coordination complexes on nanoparticles. The binding reagent complexes with phosphate groups on nucleotide monophosphate generated from cyclic nucleotides (cAMP/cGMP) through phosphodiesterases. With fluorescence polarisation detection, binding causes a change in the rate of the molecular motion of the phosphate bearing molecule, and results in an increase in the fluorescence polarization value observed for the fluorescent label attached to the substrate.
Stocks of the compound of formula (I) were prepared in 100% DMSO. All assays were performed in 3% (final) DMSO for the IMAP assay. The compound was tested in duplicate against the PDE isoform panel at a range of concentrations (10^−10, 10^−9, 10^−8, 10^−7 M).

PDE4D3 = PDE4D3 (Homo sapiens, UniProt Q08499); experiment: IMAP fluorescence polarisation PDE4 subtype assay; format: biochemical; conditions: compound 10^−7 M
PDE4D3, sequence (Q08499 1-673 isoform Q08499-2): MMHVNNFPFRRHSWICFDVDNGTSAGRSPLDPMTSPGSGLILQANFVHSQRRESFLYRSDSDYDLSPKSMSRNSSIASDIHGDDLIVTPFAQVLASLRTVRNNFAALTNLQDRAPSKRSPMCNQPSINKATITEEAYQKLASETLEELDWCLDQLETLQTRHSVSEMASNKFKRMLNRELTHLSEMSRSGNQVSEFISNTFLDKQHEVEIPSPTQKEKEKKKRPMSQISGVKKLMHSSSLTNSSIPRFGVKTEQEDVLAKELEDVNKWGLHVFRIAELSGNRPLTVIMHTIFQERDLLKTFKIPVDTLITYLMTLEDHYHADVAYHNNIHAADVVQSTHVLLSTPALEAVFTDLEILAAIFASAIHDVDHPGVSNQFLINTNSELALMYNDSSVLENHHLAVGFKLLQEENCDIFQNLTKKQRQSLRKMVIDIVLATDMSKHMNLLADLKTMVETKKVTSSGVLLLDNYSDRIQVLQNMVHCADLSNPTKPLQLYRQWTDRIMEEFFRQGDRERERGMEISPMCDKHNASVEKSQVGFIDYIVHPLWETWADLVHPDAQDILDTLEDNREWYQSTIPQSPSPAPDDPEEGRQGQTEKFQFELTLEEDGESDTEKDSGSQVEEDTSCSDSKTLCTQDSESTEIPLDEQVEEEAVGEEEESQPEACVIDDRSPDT

[1] = test system: Hidradenitis suppurativa (HS); experiment: Phase 2a open-label trial of orismilast in HS patients; format: in vivo, human; conditions: for IHS4: Baseline 65; for VAS pain: Baseline 9; for DLQI: Baseline 25; for HiSQOL: Baseline 54
From the text: The following clinical trial may be performed using the compound of formula (I). Suitably the compound of formula (I) is orally administered to a subject in the form of a modified release composition, for example a modified release formulation described in WO 2020/148271, or as a composition described in Example 1 above. […] This is a phase 2, single-centre, prospective, open-label, single-arm, exploratory clinical trial assessing the efficacy and safety of orismilast in patients with mild, moderate, or severe HS as defined by the IHS4 scores: […] Eligible patients will receive treatment with orismilast tablets twice daily for 16 weeks. The treatment dose will be according to a predefined titration scheme and adapted to the observed tolerance of each patient. Treatment phase: […] Telephone consultation], and Week 2 [Visit 4]) (“BID” means bis in die, i.e. twice per day). Assessment of treatment efficacy will be undertaken using: • 1. Investigator assessments: • a. Counts of abscess, inflammatory nodule, and draining fistula at each on site visit day. • b. International Hidradenitis Suppurativa Severity Score System (IHS4) at each on site visit day. • c. Physician's Global Assessment of disease severity (HS-PGA) at each on site visit day. • 2. Patient assessments • a. Patients' Global Assessment of disease severity at Screening, Baseline, Week 2 (Visit 4), Week 8 (Visit 6), Week 12 (Visit 7), Week 16 (EoT, Visit 8), FU (Visit 9), and EoS (Visit 10). • b. Completion of questionnaires covering skin related quality of life DLQI at Screening, Baseline, Week 2 (Visit 4), Week 8 (Visit 6), Week 12 (Visit 7), Week 16 (EoT), FU, and EoS. • c. Completion of questionnaires covering HS specific quality of life (HiSQOL) at Screening, Baseline, Week 2 (Visit 4), Week 8 (Visit 6), Week 12 (Visit 7), Week 16 (EoT), FU, and EoS. • d. Completion of questionnaire covering skin pain (Patient's Global Assessment of Skin Pain) at each visit day. • e. Completion of questionnaire covering impact on work productivity (WPAI), anxiety and depression (HADS), fatigue (MFI-20), quality of life (EQ-5D), and McGill Pain questionnaire at Baseline, Week 16 (EoT), and EoS. • Counts of abscess, inflammatory nodule, and draining fistula. The lesions are defined in a Pan-European consensus paper ([…] et al., Dermatology. 2020; 236(5):431-438). […] An abscess is defined as a palpable lesion, with liquid content (pus), fluctuant, soft on palpation, diameter >10 mm, usually deep seated; acute, very painful phenomenon. […] A treatment target based on correlation between the changes in lesion counts and PROM (pain and HRQoL). Hidradenitis Suppurativa Clinical Response (HiSCR; a […] reduction from baseline in abscess and inflammatory nodule count and no increase in abscess or draining fistula counts) (Kimball et al., Ann Intern Med. 2012 Dec. 18; 157(12):846-55; Kimball et al., J Eur Acad Dermatol Venereol. 2016 June; 30(6):989-94). Subsequently modified for further differentiation: HiSCR75; a ≥75% reduction from baseline in abscess and inflammatory nodule count and no increase in abscess or draining fistula counts) and HiSCR-90; a ≥90% reduction from baseline in abscess and inflammatory nodule count and no increase in abscess or draining fistula counts) • International Hidradenitis Suppurativa Severity Score System (IHS4): […] The score is based on a count of inflamed lesions. The resulting IHS4 score is arrived at by the number of nodules (multiplied by 1) plus the number of abscesses (multiplied by 2) plus the number of draining tunnels (multiplied by 4). […] The six-point hidradenitis suppurativa Physician Global Assessment (PGA) ranges from clear to very severe (Kimball et al., Ann Intern Med. 2012 Dec. 18; 157(12):846-55). It is used in clinical trials to measure clinical improvement in inflammatory nodules, abscesses, and draining fistulae. The six stages are; • Clear: No inflammatory or non-inflammatory nodules. • Minimal: Only the presence of non-inflammatory nodules. • Mild: […]

PDE4A4 = PDE4A4 (Homo sapiens, UniProt P27815); experiment: biochemical
PDE4A4, sequence (P27815 whole entry): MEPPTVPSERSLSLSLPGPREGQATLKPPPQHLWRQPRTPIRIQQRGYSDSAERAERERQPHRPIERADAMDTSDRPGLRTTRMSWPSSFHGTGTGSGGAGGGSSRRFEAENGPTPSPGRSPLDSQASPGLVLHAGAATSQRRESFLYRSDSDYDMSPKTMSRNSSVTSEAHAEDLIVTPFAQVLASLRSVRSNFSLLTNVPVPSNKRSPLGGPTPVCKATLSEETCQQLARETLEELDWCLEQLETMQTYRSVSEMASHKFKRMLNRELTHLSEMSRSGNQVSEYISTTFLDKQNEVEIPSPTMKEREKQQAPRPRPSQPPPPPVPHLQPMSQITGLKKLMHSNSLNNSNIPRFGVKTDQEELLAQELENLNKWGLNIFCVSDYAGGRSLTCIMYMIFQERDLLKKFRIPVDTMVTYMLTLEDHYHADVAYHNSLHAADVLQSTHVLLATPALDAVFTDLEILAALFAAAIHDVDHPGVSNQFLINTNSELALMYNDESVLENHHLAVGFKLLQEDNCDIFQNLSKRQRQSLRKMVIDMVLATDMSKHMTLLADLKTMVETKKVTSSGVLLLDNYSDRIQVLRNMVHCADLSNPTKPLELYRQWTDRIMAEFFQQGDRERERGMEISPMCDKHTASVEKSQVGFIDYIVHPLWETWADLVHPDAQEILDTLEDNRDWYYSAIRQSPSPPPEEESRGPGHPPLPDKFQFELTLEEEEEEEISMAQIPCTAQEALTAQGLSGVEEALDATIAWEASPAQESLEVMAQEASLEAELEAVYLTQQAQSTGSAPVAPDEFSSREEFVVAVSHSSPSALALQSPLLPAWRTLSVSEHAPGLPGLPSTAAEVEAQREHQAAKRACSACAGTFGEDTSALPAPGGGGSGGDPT

TNF-α = experiment: LPS-induced TNF-α in ferrets after single oral administration; conditions: oral 1, 3 and 10 mg/kg; 1 hour after LPS (3 mg/kg ip)

PDE4B2, sequence (Q07343 1-564 isoform Q07343-2): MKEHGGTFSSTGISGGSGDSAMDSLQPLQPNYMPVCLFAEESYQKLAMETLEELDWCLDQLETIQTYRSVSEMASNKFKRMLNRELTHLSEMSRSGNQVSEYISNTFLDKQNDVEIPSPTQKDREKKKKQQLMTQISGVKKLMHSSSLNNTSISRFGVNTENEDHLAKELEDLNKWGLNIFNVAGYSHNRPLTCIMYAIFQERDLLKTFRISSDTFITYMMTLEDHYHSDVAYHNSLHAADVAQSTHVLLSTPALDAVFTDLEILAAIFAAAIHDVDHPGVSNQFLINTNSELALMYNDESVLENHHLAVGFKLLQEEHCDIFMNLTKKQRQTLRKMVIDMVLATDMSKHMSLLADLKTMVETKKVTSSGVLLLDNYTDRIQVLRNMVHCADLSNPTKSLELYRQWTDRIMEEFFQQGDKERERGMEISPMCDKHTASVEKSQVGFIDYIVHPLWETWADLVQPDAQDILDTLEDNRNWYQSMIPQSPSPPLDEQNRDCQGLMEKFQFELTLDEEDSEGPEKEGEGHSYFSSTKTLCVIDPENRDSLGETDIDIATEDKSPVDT

Compound `O=C(Cc1c(Cl)c[n+]([O-])cc1Cl)c1ccc(OC(F)F)c2c1OC1(CCS(=O)(=O)CC1)O2` [Compound (I), 2-(3,5-Dichloro-1-oxido-pyridine-4-yl)-1-(7-difluoro-methoxy-2′,3′,5′,6′-tetrahydro-spiro[1,3-benzodioxole-2,4′-(4H)-thiopyran-1′,1′-dioxide]-4-yl)ethanone] has an inhibition at 0.1 µM (PDE4B2; compound 10^−7 M) of 61%, an inhibition at 0.01 µM (PDE4B2; compound 10^−8 M) of 41% and an inhibition at 0.001 µM (PDE4B2; compound 10^−9 M) of 18%. For the same compound, the inhibition at 0.0001 µM (PDE4B2; compound 10^−10 M) was 12%, the inhibition at 0.1 µM (PDE4D3) was 74% and the “clinical response (in words)” value ([1]; first four HS patients enrolled, trial ongoing) was “initial signs of improvement in HS”. For the same compound, the “clinical response (in words)” value ([1]; one patient refractory to conventional HS therapies) was “immediate clinical improvement with reduction of tissue edema and pain, as well as increased mobility”, the IHS4 ([1]; one patient, severe HS, Day 14, 10 to 30 mg twice daily) was 61 and the VAS pain ([1]; one patient, Day 14) was 7. For the same compound, the DLQI ([1]; one patient, Day 14) was 23, the HiSQOL ([1]; one patient, Day 14) was 42 and the VAS pain ([1]; one patient, Day 57) was 6. For the same compound, the DLQI ([1]; one patient, Day 57) was 22, the HiSQOL ([1]; one patient, Day 57) was 46 and the IHS4 ([1]; one patient, Day 57, 30 mg twice daily) was 62. For the same compound, the thrombocytes ([1]; one patient, at day 14, baseline 402) was 365, the “patient's global assessment” value ([1]; one patient, day 15) was “very severe” and the “patient's global assessment” value ([1]; one patient, day 57) was “severe”. The leukocytes ([1]; one patient, day 57, baseline 14.0) was 11.5, the C-reactive protein ([1]; one patient, day 57, baseline 89) was 84 and the erythrocyte sedimentation rate ([1]; one patient, day 57, baseline 94) was 88. For the same compound, the “physician's global assessment of disease activity” value ([1]; one patient, during treatment to day 57) was “very severe”, the pIC50 (PDE4A4) was 7.96 and the “increase of TNF-α levels observed at 1 hour” value (TNF-α) was “attenuated, in a clear dose-related manner”.
